In ChEMBL document CHEMBL4118223, “New TRAP1 and Hsp90 chaperone inhibitors with cationic components: Preliminary studies on mitochondrial targeting” (Bioorg Med Chem Lett, 2018):
The source made the active and inactive calls. No cut-off for these calls is given here.

Tests used:
HCT-116 [1] = assay: Antiproliferative activity against human HCT116 cells after 24 hrs by MTT assay; type: functional, cell-based; details: HCT-116, 24 h
[2] = Drug uptake in mitochondria of human HCT116 cells at 1 uM after 12 hrs by mass spectrometric analysis; type: ADME; details: hct-116, 12 h
[3] = biological target: T1, Heat shock protein 75 kDa, mitochondrial (Homo sapiens, UniProt Q12931)
T1 sequence (Q12931 whole entry): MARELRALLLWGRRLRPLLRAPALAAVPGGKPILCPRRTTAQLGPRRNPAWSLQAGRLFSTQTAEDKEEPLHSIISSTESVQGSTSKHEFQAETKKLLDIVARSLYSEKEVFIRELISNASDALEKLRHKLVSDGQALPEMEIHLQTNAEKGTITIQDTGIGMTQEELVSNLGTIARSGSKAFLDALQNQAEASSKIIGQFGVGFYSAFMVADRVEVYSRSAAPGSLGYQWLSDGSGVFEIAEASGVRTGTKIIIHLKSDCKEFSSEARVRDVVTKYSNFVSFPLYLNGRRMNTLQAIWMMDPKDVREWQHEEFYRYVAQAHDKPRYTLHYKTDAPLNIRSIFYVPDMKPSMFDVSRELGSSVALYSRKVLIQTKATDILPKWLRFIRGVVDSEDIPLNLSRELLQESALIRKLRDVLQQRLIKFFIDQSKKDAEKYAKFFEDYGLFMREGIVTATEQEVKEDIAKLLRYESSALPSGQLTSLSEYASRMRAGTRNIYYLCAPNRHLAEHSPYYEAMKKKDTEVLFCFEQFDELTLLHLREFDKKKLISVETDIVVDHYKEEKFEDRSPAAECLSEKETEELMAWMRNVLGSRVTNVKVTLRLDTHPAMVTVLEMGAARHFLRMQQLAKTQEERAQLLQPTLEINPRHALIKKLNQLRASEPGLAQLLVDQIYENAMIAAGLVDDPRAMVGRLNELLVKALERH
Description: Inhibition of recombinant human N-terminal His6-tagged TRAP1 (60 to 704 residues) ATPase activity expressed in Escherichia coli BL21-CodonPlus-RIL after overnight incubation by BioMol green dye-based assay

HCT-116 [4] = assay: Induction of apoptosis in human HCT116 cells at 0.1 to 10 uM after 24 hrs by FITC/Annexin-V/7-AAD staining-based FACS analysis; type: functional, cell-based
[5] = Drug uptake in cytosol of human HCT116 cells at 1 uM after 12 hrs by mass spectrometric analysis; type: ADME, subcellular, HCT-116
HCT-116 [6] = assay: Induction of apoptosis in human HCT116 cells at 10 uM after 24 hrs by FITC/Annexin-V/7-AAD staining-based FACS analysis; type: functional, cell-based
[7] = biological target: Heat shock protein HSP 90-alpha (Homo sapiens, UniProt P07900); assay: Inhibition of FITC-geldanamycin binding to recombinant human HSP90alpha expressed in Escherichia coli by fluorescence anisotropy method
HCT-116 [8] = assay: Induction of apoptosis in human HCT116 cells at 1 to 10 uM after 24 hrs by FITC/Annexin-V/7-AAD staining-based FACS analysis; type: functional, cell-based

Compound | IC50 (HCT-116 [1]) | Drug uptake [2] | IC50 [3] | Activity (HCT-116 [4]) | Drug uptake [5] | Activity (HCT-116 [6]) | IC50 [7] | Kd [7] | Activity (HCT-116 [8])
CCNC(=O)c1noc(-c2cc(C(C)C)c(O)cc2O)c1NC(=O)CCCCC(=O)NCCCNCCNCCCN | 26.7 µM | Active | 5 µM | Active | Not Active | – | – | – | –
COc1cccc(-c2cc(F)ccc2[C@H]2Cc3nc(N)nc(C)c3C(=O)N2)n1 | – | Not Active | 0.2 µM | Active | – | – | – | – | –
CCNC(=O)c1noc(-c2cc(C(C)C)c(O)cc2O)c1NC(=O)CCCCC[P+](c1ccccc1)(c1ccccc1)c1ccccc1.[Br-] | 5.12 µM | Active | 25 µM | – | Not Active | Active | – | – | –
CCNC(=O)c1noc(-c2cc(C(C)C)c(O)cc2O)c1NC(=O)CCCCC[n+]1ccccc1.[Br-] | 7.86 µM | – | 10 µM | – | Not Active | Active | – | – | –
CCNC(=O)c1noc(-c2cc(C(C)C)c(O)cc2O)c1NC(=O)CCCCCCc1ccc(C(=O)NC(=N)N)cc1 | 6.17 µM | Active | 3 µM | – | Not Active | – | – | – | –
CCNC(=O)c1noc(-c2cc(C(C)C)c(O)cc2O)c1NC(=O)c1ccc(OC)cc1 | 0.87 µM | Not Active | 0.4 µM | Active | – | – | – | – | –
CCNC(=O)c1noc(-c2cc(C(C)C)c(O)cc2O)c1NC(=O)c1ccc(C(=O)NC(=N)N)cc1 | 1.32 µM | Active | – | – | Not Active | – | 0.021 µM | 0.0015 µM | Active
CCNC(=O)c1noc(-c2cc(C(C)C)c(O)cc2O)c1NC(=O)CCN1CCOCC1 | – | – | 20 µM | – | – | – | – | – | –
